Patent publication US20240228463A1, “SODIUM CHANNEL INHIBITORS AND METHODS OF DESIGNING SAME” (Genentech, Inc., priority 2021, published 2024)
Counter-ions that a name gives are not always drawn.

Molecular target: T1, hNaV1.7 (Homo sapiens, UniProt Q15858)
T1 construct: expressed in transfected cells
Assay: Patch voltage clamp electrophysiology (EP), Syncropatch 384PE, Nav1.7 in CHO cells;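 also: Nav1.7 stably expressed from cDNA in CHO cells, holding potential of −50 mV kept for the entire experiment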
Format: cell-based
Conditions: holding potential −50 mV, inhibition based on 7.5 min compound incubation, read-out: hNaV1.7 EP_SP

T1 sequence (Q15858 1-1977 isoform Q15858-3): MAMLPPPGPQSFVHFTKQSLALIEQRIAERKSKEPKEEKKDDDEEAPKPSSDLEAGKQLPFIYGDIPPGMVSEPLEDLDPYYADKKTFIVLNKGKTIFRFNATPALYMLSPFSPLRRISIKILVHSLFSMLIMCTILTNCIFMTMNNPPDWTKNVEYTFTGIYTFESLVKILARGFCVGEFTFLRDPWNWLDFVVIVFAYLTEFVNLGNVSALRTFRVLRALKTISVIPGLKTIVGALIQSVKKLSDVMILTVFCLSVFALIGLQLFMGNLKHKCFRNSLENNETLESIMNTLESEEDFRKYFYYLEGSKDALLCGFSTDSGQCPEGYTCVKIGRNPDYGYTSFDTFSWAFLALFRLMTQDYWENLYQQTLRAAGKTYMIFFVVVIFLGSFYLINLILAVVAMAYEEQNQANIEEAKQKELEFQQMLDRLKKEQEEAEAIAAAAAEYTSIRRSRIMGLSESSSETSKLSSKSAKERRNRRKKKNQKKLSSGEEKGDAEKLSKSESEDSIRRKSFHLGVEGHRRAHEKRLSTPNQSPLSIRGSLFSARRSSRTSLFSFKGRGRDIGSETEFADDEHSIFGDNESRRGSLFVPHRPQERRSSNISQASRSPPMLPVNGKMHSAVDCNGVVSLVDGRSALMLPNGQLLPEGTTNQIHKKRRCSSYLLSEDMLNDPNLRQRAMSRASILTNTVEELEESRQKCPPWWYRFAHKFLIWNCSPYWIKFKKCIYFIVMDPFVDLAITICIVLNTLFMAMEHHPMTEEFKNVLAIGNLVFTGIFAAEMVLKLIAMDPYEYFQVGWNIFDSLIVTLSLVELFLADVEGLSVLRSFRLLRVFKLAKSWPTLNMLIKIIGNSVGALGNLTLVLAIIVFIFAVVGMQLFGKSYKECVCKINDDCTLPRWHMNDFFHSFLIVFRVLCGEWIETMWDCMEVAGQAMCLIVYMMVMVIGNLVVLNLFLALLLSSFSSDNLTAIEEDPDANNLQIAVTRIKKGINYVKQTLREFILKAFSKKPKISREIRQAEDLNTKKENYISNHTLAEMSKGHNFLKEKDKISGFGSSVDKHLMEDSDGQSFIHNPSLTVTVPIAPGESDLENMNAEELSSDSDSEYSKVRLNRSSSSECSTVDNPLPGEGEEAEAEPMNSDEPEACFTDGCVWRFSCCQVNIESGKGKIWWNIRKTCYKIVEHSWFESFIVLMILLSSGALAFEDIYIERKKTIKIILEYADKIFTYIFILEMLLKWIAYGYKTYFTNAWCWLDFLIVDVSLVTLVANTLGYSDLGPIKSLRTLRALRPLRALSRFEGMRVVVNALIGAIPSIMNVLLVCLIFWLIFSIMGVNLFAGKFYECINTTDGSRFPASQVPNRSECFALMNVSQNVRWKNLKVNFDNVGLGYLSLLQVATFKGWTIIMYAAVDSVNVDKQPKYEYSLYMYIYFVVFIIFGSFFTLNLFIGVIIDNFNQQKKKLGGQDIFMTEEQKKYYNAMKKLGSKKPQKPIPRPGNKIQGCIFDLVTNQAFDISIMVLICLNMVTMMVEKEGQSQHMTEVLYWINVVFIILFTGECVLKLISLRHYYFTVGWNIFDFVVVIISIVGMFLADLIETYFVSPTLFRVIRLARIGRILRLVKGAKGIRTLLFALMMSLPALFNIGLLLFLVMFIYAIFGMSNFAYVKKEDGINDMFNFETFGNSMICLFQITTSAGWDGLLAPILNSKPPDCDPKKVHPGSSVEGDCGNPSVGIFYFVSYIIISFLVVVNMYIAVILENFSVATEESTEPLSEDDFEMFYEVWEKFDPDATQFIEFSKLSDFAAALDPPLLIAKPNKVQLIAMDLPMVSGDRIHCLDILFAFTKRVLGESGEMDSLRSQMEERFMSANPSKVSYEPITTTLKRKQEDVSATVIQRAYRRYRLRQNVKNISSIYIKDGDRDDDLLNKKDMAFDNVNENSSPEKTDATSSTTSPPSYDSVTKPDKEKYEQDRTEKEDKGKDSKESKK

IC50 [nM]	SMILES
750	CNC1CN(S(=O)(=O)NC(=O)c2cc(Cl)c(OCC3CCCC3)cc2F)C1 [Example 226, 5-chloro-4-(cyclopentylmethoxy)-2-fluoro-N-((3-(methylamino)azetidin-1-yl)sulfonyl)benzamide formate]
20	O=C(NS(=O)(=O)N1CCCCCC1)c1cc(Cl)c(OCC2CCCC2)cc1F [Example 227, N-(azepan-1-ylsulfonyl)-5-chloro-4-(cyclopentylmethoxy)-2-fluorobenzamide]
210	O=C(NS(=O)(=O)N1CC2(CCO2)C1)c1cc(Cl)c(OCC2CCCC2)cc1F [Example 228, N-((1-oxa-6-azaspiro[3.3]heptan-6-yl)sulfonyl)-5-chloro-4-(cyclopentylmethoxy)-2-fluorobenzamide]
12	O=C(NS(=O)(=O)N1CCCC12CC2)c1cc(Cl)c(OCC2CCCC2)cc1F [Example 229, N-((4-azaspiro[2.4]heptan-4-yl)sulfonyl)-5-chloro-4-(cyclopentylmethoxy)-2-fluorobenzamide]
63	O=C(NS(=O)(=O)N1C[C@@H]2CC[C@@H](C2)C1)c1cc(Cl)c(OCC2CCCC2)cc1F [Example 230, N-(((1R,5S)-3-azabicyclo[3.2.1]octan-3-yl)sulfonyl)-5-chloro-4-(cyclopentylmethoxy)-2-fluorobenzamide]
430	O=C(NS(=O)(=O)N1CC[C@@H]2CN[C@@H]2C1)c1cc(Cl)c(OCC2CCCC2)cc1F [Example 231, N-((1S,6R)-3,8-diazabicyclo[4.2.0]octan-3-ylsulfonyl)-5-chloro-4-(cyclopentylmethoxy)-2-fluorobenzamide 2,2,2-trifluoroacetate]
880	NC[C@@H]1CCN(S(=O)(=O)NC(=O)c2cc(Cl)c(OCC3CCCC3)cc2F)C1 [Example 232, (S)—N-((3-(aminomethyl)pyrrolidin-1-yl)sulfonyl)-5-chloro-4-(cyclopentylmethoxy)-2-fluorobenzamide 2,2,2-trifluoroacetate]
870	NC1CN(S(=O)(=O)NC(=O)c2cc(Cl)c(OCC3CCCC3)cc2F)C1 [Example 233, N-((3-aminoazetidin-1-yl)sulfonyl)-5-chloro-4-(cyclopentylmethoxy)-2-fluorobenzamide]
340	CN(C)C1CN(S(=O)(=O)NC(=O)c2cc(Cl)c(OCC3CCCC3)cc2F)C1 [Example 234, 5-chloro-4-(cyclopentylmethoxy)-N-((3-(dimethylamino)azetidin-1-yl)sulfonyl)-2-fluorobenzamide]
65	O=C(NS(=O)(=O)c1ccccc1F)c1cc(Cl)c(OCC2CCCC2)cc1F [Example 241, 5-chloro-4-(cyclopentylmethoxy)-2-fluoro-N-((2-fluorophenyl)sulfonyl)benzamide]
110	Cc1ccccc1S(=O)(=O)NC(=O)c1cc(Cl)c(OCC2CCCC2)cc1F [Example 242, 5-chloro-4-(cyclopentylmethoxy)-2-fluoro-N-(o-tolylsulfonyl)benzamide]
52	CC(C)S(=O)(=O)NC(=O)c1cc(Cl)c(OCC2CCCC2)cc1F [Example 247, 5-chloro-4-(cyclopentylmethoxy)-2-fluoro-N-(isopropylsulfonyl)benzamide]
110	Cc1csc(S(=O)(=O)NC(=O)c2cc(Cl)c(OCC3CCCC3)cc2F)c1 [Example 252, 5-chloro-4-(cyclopentylmethoxy)-2-fluoro-N-((4-methylthiophen-2-yl)sulfonyl)benzamide]
13	O=C(NS(=O)(=O)C1CC12CCC2)c1cc(Cl)c(OCC2CCCC2)cc1F (centres unmarked) [Example 256, 5-chloro-4-(cyclopentylmethoxy)-2-fluoro-N-(spiro[2.3]hexan-1-ylsulfonyl)benzamide]

Second part, the compound before the results:

SMILES	IC50 [nM]
CN(C)[C@H]1CCCC[C@@H]1Nc1cc(F)c(S(=O)(=O)NC(=O)c2cc(Cl)c(OCC3CCCC3)cc2F)c(F)c1 [Example 206, 5-chloro-4-(cyclopentylmethoxy)-N-((4-(((1S,2S)-2-(dimethylamino)-cyclohexyl)amino)-2,6-difluorophenyl)sulfonyl)-2-fluorobenzamide]	50
O=C(NS(=O)(=O)c1ccc(NC2CCCCC2)cc1F)c1cc(Cl)c(OCC2CCCC2)cc1F [Example 208, 5-chloro-N-((4-(cyclohexylamino)-2-fluorophenyl)sulfonyl)-4-(cyclopentylmethoxy)-2-fluorobenzamide]	880
CN1CC(OC2CCN(S(=O)(=O)NC(=O)c3cc(C4CC4)c(OCc4ccccc4)cc3F)CC2)C1 [Example 236, 4-(benzyloxy)-5-cyclopropyl-2-fluoro-N-((4-((1-methylazetidin-3-yl)oxy)piperidin-1-yl)sulfonyl)benzamide]	39
CC(C)COc1cc(F)c(C(=O)NS(=O)(=O)N2CCC(OC3CN(C)C3)CC2)cc1C1CC1 [Example 237, 5-cyclopropyl-2-fluoro-4-isobutoxy-N-((4-((1-methylazetidin-3-yl)oxy)piperidin-1-yl)sulfonyl)benzamide formic acid]	50
CN1CC(OC2CCN(S(=O)(=O)NC(=O)c3cc(C4CC4)c(OCC(F)(F)F)cc3F)CC2)C1 [Example 238, 5-cyclopropyl-2-fluoro-N-((4-((1-methylazetidin-3-yl)oxy)piperidin-1-yl)sulfonyl)-4-(2,2,2-trifluoroethoxy)benzamide]	84
CN1CC(OC2CCN(S(=O)(=O)NC(=O)c3cc(Cl)c(Oc4ccc(Cl)c(C(F)(F)F)c4)cc3F)CC2)C1 [Example 239, 5-chloro-4-(4-chloro-3-(trifluoromethyl)phenoxy)-2-fluoro-N-((4-((1-methylazetidin-3-yl)oxy)piperidin-1-yl)sulfonyl)benzamide]	25
CCc1ccc(S(=O)(=O)NC(=O)c2cc(Cl)c(OCC3CCCC3)cc2F)cc1 [Example 243, 5-chloro-4-(cyclopentylmethoxy)-N-((4-ethylphenyl)sulfonyl)-2-fluorobenzamide]	670
CCc1cccc(S(=O)(=O)NC(=O)c2cc(Cl)c(OCC3CCCC3)cc2F)c1 [Example 244, 5-chloro-4-(cyclopentylmethoxy)-N-((3-ethylphenyl)sulfonyl)-2-fluorobenzamide]	770
COc1cccc(S(=O)(=O)NC(=O)c2cc(Cl)c(OCC3CCCC3)cc2F)c1 [Example 245, 5-chloro-4-(cyclopentylmethoxy)-2-fluoro-N-((3-methoxyphenyl)sulfonyl)benzamide]	690
COc1ccccc1S(=O)(=O)NC(=O)c1cc(Cl)c(OCC2CCCC2)cc1F [Example 246, 5-chloro-4-(cyclopentylmethoxy)-2-fluoro-N-((2-methoxyphenyl)sulfonyl)benzamide]	230
O=C(NS(=O)(=O)CCCOc1cccc(C(F)(F)F)c1)c1cc(Cl)c(OCC2CCCC2)cc1F [Example 253, 5-chloro-4-(cyclopentylmethoxy)-2-fluoro-N-((3-(3-(trifluoromethyl)phenoxy)propyl)sulfonyl)benzamide]	420
CN(C)[C@H]1CCCC[C@@H]1Oc1ccc(S(=O)(=O)Nc2ccc(SCc3ccccc3Cl)cn2)c(F)c1 [Example 257, N-(5-((2-chlorobenzyl)thio)pyridin-2-yl)-4-(((1S,2S)-2-(dimethylamino)cyclohexyl)oxy)-2-fluorobenzenesulfonamide]	730
